Structures can show the parent of a compound that is named as a salt.
Key:
[1] = target: T1, recombinant human arginase 1 (Homo sapiens, UniProt P05089); assay: Human arginase inhibition assay (colorimetric urea detection), arginase 1; type: biochemical; conditions: IC50 class, hydrochloride salts, 1 h at 37° C., pH 7.4, 10 mM L-arginine, 200 μM MnCl2, read-out: Activity Class (ARG I)
T1 construct: made in house; host or cells: E. coli
T1 sequence (P05089 1-322): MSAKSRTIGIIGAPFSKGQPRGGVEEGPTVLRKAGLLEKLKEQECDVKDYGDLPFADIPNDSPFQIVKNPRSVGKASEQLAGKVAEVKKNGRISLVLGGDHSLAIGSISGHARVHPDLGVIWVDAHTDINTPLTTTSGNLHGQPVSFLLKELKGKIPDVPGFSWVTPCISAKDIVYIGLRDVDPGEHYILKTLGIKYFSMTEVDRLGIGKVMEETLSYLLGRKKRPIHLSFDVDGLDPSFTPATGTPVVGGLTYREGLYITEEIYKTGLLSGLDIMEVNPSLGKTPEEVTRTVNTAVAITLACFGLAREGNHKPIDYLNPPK
Protocol: (§1) The inhibitory activities of the compounds of the invention were assessed using recombinant human arginase 1 and 2. Both enzymes were biosynthesized using a prokaryotic expression system (E. coli) and purified by fast protein liquid chromatography (FPLC). The compounds were screened in 96-well plates at the total reaction volume of 100 μL. Briefly, recombinant enzymes were incubated with the tested compounds for 1 h at 37° C. in the reaction buffer (100 mM sodium phosphate buffer, 130 mM NaCl, 1 mg/mL BSA, pH 7.4) containing substrate (10 mM L-arginine hydrochloride) and cofactor (200 μM MnCl2). The assay is based on the detection of urea, which is generated during the conversion of L-arginine into L-ornithine catalyzed by ARG1 or ARG2. The colorimetrically detectable product was developed by adding a mixture of reagent A (4 mM oPA, 50 mM boric acid, 1 M sulfuric acid, 0.03% Brij-35) and reagent B (4 mM NED, 50 mM boric acid, 1 M sulfuric acid, 0.03% Brij-35) in equal proportions. The absorbance for each well was measured at 515 nm and the enzyme inhibition was calculated. The urea production in the absence of any tested compound was considered as maximal enzyme activity. The absorbance at the absence of arginase (background) was subtracted from all the values. Normalized values were analyzed using GraphPad Prism 7.0 software by plotting inhibition curves and determining the IC50 values.
(§2) The inhibitory activity toward humane arginase 1 of the hydrochloride salts of the exemplary compounds according to the invention is presented in Table 5.

[2] = target: T2, recombinant human arginase 2 (Homo sapiens, UniProt P78540); assay: Human arginase inhibition assay (colorimetric urea detection), arginase 2; type: biochemical; conditions: IC50 class, hydrochloride salts, 1 h at 37° C., pH 7.4, 10 mM L-arginine, 200 μM MnCl2, read-out: Activity Class (ARG II)
T2 construct: made in house; host or cells: E. coli
T2 sequence (P78540 23-354): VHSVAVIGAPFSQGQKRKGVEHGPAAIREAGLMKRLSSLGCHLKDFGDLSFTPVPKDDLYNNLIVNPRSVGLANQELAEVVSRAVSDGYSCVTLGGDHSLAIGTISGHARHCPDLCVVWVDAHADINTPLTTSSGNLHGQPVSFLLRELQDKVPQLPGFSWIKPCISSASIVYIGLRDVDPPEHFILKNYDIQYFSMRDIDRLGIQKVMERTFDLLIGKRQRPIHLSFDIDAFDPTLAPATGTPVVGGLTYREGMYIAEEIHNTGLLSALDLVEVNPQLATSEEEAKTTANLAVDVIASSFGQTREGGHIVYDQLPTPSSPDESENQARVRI
Protocol: as §1, §2
The inhibitory activity toward humane arginase 2 of the hydrochloride salts of the selected exemplary compounds according to the invention is presented in Table 6.

Structure (SMILES)	IC50 [1] [nM]	IC50 [2] [nM]
C[C@H](N)C(=O)N1C[C@H](CCB(O)O)C[C@@](N)(C(=O)O)C1 [Example 2, (3S,5R)-1-(L-Alanyl)-3-amino-5-(2-boronoethyl)piperidine-3-carboxylic acid dihydrochloride]	> 10000	–
CC(C)C[C@H](N)C(=O)N1C[C@@H](CCB(O)O)C[C@](N)(C(=O)O)C1 [Example 8, (3R,5S)-1-(L-Leucyl)-3-amino-5-(2-boronoethyl)piperidine-3-carboxylic acid dihydrochloride]	500 to 999	–
CC[C@H](C)[C@H](N)C(=O)N1C[C@@H](CCB(O)O)C[C@](N)(C(=O)O)C1 [Example 9, (3R,5S)-1-(L-Isoleucyl)-3-amino-5-(2-boronoethyl)piperidine-3-carboxylic acid dihydrochloride]	500 to 999	–
N[C@@H](CC(=O)O)C(=O)N1C[C@@H](CCB(O)O)C[C@](N)(C(=O)O)C1 [Example 14, (3R,5S)-1-(L-Aspartyl)-3-amino-5-(2-boronoethyl)piperidine-3-carboxylic acid dihydrochloride]	500 to 999	–
N[C@@H](CCC(=O)O)C(=O)N1C[C@@H](CCB(O)O)C[C@](N)(C(=O)O)C1 [Example 15, (3R,5S)-1-(L-Glutamyl)-3-amino-5-(2-boronoethyl)piperidine-3-carboxylic acid dihydrochloride]	500 to 999	–
N[C@@H](CS)C(=O)N1C[C@@H](CCB(O)O)C[C@](N)(C(=O)O)C1 [Example 19, (3R,5S)-1-(L-Cysteinyl)-3-amino-5-(2-boronoethyl)piperidine-3-carboxylic acid dihydrochloride]	500 to 999	–
C[C@@H](N)C(=O)N1C[C@@H](CCB(O)O)C[C@](N)(C(=O)O)C1 [Example 23, (3R,5S)-1-(D-Alanyl)-3-amino-5-(2-boronoethyl)piperidine-3-carboxylic acid dihydrochloride]	1000 to 10000	–
Cn1cc(C[C@@H](N)C(=O)N2C[C@@H](CCB(O)O)C[C@](N)(C(=O)O)C2)c2ccccc21 [Example 24, (3R,5S)-3-amino-5-(2-boronoethyl)-1-(1-methyl-D-tryptophyl)piperidine-3-carboxylic acid dihydrochloride]	500 to 999	–
COC(=O)[C@@]1(N)C[C@H](CCB(O)O)CN(C(=O)[C@H](C)N)C1 [Example 28, (2-((3S,5R)-1-(L-Alanyl)-5-amino-5-(methoxycarbonyl)piperidin-3-yl)ethyl) boronic acid dihydrochloride]	> 10000	–
C[C@@H]1N(C(=O)[C@@H](N)CCCNC(=N)N)C[C@@H](CCB(O)O)C[C@]1(N)C(=O)O [Example 31, (2S,3R,5S)-1-(L-Arginyl)-3-amino-5-(2-boronoethyl)-2-methylpiperidine-3-carboxylic acid trihydrochloride]	250 to 499	–
C[C@H](N)C(=O)N1C[C@H](CCB(O)O)C[C@](N)(C(=O)O)C1 [Example 32, (3R,5R)-1-(L-Alanyl)-3-amino-5-(2-boronoethyl)piperidine-3-carboxylic acid dihydrochloride]	> 10000	–
C[C@H](N)C(=O)N1C[C@@H](CCB(O)O)C[C@@](N)(C(=O)O)C1 [Example 33, (3S,5S)-1-(L-Alanyl)-3-amino-5-(2-boronoethyl)piperidine-3-carboxylic acid dihydrochloride]	> 10000	–

The remaining lines, values ahead:

IC50 [1] [nM]	IC50 [2] [nM]	Structure (SMILES)
250 to 499	500 to 999	C[C@H](N)C(=O)N1C[C@@H](CCB(O)O)C[C@](N)(C(=O)O)C1 [Example 1, (3R,5S)-1-(L-Alanyl)-3-amino-5-(2-boronoethyl)piperidine-3-carboxylic acid dihydrochloride]
1 to 249	500 to 999	NCC(=O)N1C[C@@H](CCB(O)O)C[C@](N)(C(=O)O)C1 [Example 3, (3R,5S)-3-Amino-5-(2-boronoethyl)-1-glycylpiperidine-3-carboxylic acid dihydrochloride]
250 to 499	–	N[C@]1(C(=O)O)C[C@H](CCB(O)O)CN(C(=O)[C@@H]2CCCN2)C1 [Example 4, (3R,5S)-1-(L-Prolyl)-3-amino-5-(2-boronoethyl)piperidine-3-carboxylic acid dihydrochloride]
250 to 499	–	CC(C)[C@H](N)C(=O)N1C[C@@H](CCB(O)O)C[C@](N)(C(=O)O)C1 [Example 5, (3R,5S)-1-(L-Valyl)-3-amino-5-(2-boronoethyl)piperidine-3-carboxylic acid dihydrochloride]
1 to 249	500 to 999	N[C@@H](CO)C(=O)N1C[C@@H](CCB(O)O)C[C@](N)(C(=O)O)C1 [Example 6, (3R,5S)-1-(L-Seryl)-3-amino-5-(2-boronoethyl)piperidine-3-carboxylic acid dihydrochloride]
250 to 499	–	N[C@@H](Cc1ccc(O)cc1)C(=O)N1C[C@@H](CCB(O)O)C[C@](N)(C(=O)O)C1 [Example 10, (3R,5S)-1-(L-Tyrosyl)-3-amino-5-(2-boronoethyl)piperidine-3-carboxylic acid dihydrochloride]
250 to 499	–	C[C@@H](O)[C@H](N)C(=O)N1C[C@@H](CCB(O)O)C[C@](N)(C(=O)O)C1 [Example 12, (3R,5S)-1-(L-Threonyl)-3-amino-5-(2-boronoethyl)piperidine-3-carboxylic acid dihydrochloride]
250 to 499	–	NC(=O)CC[C@H](N)C(=O)N1C[C@@H](CCB(O)O)C[C@](N)(C(=O)O)C1 [Example 16, (3R,5S)-1-(L-Glutaminyl)-3-amino-5-(2-boronoethyl)piperidine-3-carboxylic acid dihydrochloride]
250 to 499	–	CSCC[C@H](N)C(=O)N1C[C@@H](CCB(O)O)C[C@](N)(C(=O)O)C1 [Example 17, (3R,5S)-1-(L-Methionyl)-3-amino-5-(2-boronoethyl)piperidine-3-carboxylic acid dihydrochloride]
250 to 499	–	N[C@@H](Cc1c[nH]c2ccccc12)C(=O)N1C[C@@H](CCB(O)O)C[C@](N)(C(=O)O)C1 [Example 18, (3R,5S)-1-(L-Tryptophyl)-3-amino-5-(2-boronoethyl)piperidine-3-carboxylic acid dihydrochloride]
250 to 499	–	NC(=O)NCCC[C@H](N)C(=O)N1C[C@@H](CCB(O)O)C[C@](N)(C(=O)O)C1 [Example 21, (3R,5S)-3-Amino-1-((S)-2-amino-5-ureidopentanoyl)-5-(2-boronoethyl) piperidine-3-carboxylic acid dihydrochloride]
250 to 499	–	NCCC[C@H](N)C(=O)N1C[C@@H](CCB(O)O)C[C@](N)(C(=O)O)C1 [Example 22, (3R,5S)-3-Amino-5-(2-boronoethyl)-1-((S)-2,5-diaminopentanoyl)piperidine-3-carboxylic acid trihydrochloride]
250 to 499	–	CCC[C@H](N)C(=O)N1C[C@@H](CCB(O)O)C[C@](N)(C(=O)O)C1 [Example 25, (3R,5S)-3-Amino-1-((S)-2-aminopentanoyl)-5-(2-boronoethyl)piperidine-3-carboxylic acid dihydrochloride]
250 to 499	–	NC(=O)C[C@H](N)C(=O)N1C[C@@H](CCB(O)O)C[C@](N)(C(=O)O)C1 [Example 26, (3R,5S)-1-(L-Asparaginyl)-3-amino-5-(2-boronoethyl)piperidine-3-carboxylic acid dihydrochloride]
250 to 499	–	CNCC(=O)N1C[C@@H](CCB(O)O)C[C@](N)(C(=O)O)C1 [Example 27, (3R,5S)-3-Amino-5-(2-boronoethyl)-1-(methylglycyl)piperidine-3-carboxylic acid dihydrochloride]
1 to 249	–	N=C(N)NCCC[C@H](N)C(=O)N1C[C@@H](CCB2OC(=O)CC(CC(=O)O)(C(=O)O)O2)C[C@](N)(C(=O)O)C1 (stereo partly drawn) [Example 29, (3R,5S)-1-(L-Arginyl)-3-amino-5-(2-(4-carboxy-4-(carboxymethyl)-6-oxo-1,3,2-dioxaborinan-2-yl)ethyl)piperidine-3-carboxylic acid trihydrochloride]
